This is an account of results in patent US11267861B2, “Peptide-oligourea foldamer compounds and methods of their use” (UREKA SARL, priority 2016, dated 2022).

For one data set, the target named is T1, human glucagon receptor (Homo sapiens, UniProt P47871).
T1 construct: expressed in transfected cells; host or cells: CHO cells
The data set is described as follows: Glucagon functional assay: agonist activity by cAMP production (HTRF) in transfected CHO cells. In kind it is cell-based. Conditions: for EC50: cAMP production, transfected CHO cells, 10 minutes at 37° C. How it is done: Functional Assay to Examine Bioactivity of Glucagon Receptor Agonists. Evaluation of the agonist activity of compounds at the human glucagon receptor expressed in transfected CHO cells was examined by measuring their effects on cAMP production using the HTRF detection method. […] For stimulated control measurement, separate assay wells contain 100 nM glucagon were utilized.
Following incubation, the cells were lysed and the fluorescence acceptor (D2-labeled cAMP) and fluorescence donor (anti-cAMP antibody labeled with europium cryptate) were added. […] The results are expressed as a percent of the control response to 100 nM glucagon. The standard reference agonist is glucagon, which was tested in each experiment at several concentrations to generate a concentration-response curve from which its EC50 value was calculated.
HTRF (Homogeneous Time-Resolved Fluorescence) principle. The HTRF technology is based on time resolved fluorescence energy transfer (TR-FRET), which occurs between long-lived fluorophore Europium or Terbium Cryptates, and EuK or Tb respectively, as a donor and the allophycocyanin XL665, d2 or Red as acceptor. Many compounds and proteins present in biological fluids or serum are naturally fluorescent, and the use of conventional, prompt fluorescence leads to serious limitations in assay sensitivity. The use of long-lived fluorophore combined with time-resolved detection (a delay between excitation and emission detection) minimizes prompt fluorescence interference.
In general terms: cAMP levels reflect the balance of adenylyl cyclase and phosphodiesterase activity.

A short description of data set [1]: Solubility of glucagon analogs (UV absorbance).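 On all read-outs here: peptide stock at 3 mg/ml in 0.01 M HCl, absorbance at 280 nm read before neutralization and again on the diluted supernatant after centrifugation.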 In kind it is physicochemical. Conditions: for solubility: 0.01M HCl solution adjusted to pH 7 with Na2HPO4, pH 7, pH adjusted to 7 with Na2HPO4, incubated overnight at 4° C.; for ratio (solubility relative to reference compound 16): relative to compound 16.
Method: A solution of 3 mg/ml of glucagon (or analog) was prepared in a 0.01M HCl solution. Then 0.1 ml of the stock solution was diluted to 1 ml with HCl (0.01M) and the UV absorbance measured (to 280 nm) with nanodrop UV spectrometer. The pH of the remaining stock solution was adjusted to 7 using Na2HPO4, and the solution was incubated overnight at 4° C. The solution was then centrifuged three times (5 minutes, 4000 rotations per minute), 0.1 ml of the supernatant was removed and diluted to 1 ml with HCl solution (0.01M).
The final UV absorbance was measured.

In brackets after ≈: the same amount, converted by molar mass. Numbered stars: 1 amine (or outer) side, 2 acyl side, 3 side chain; on linkers, the order of the positions; unused ones are H or OH. Bridge positions count the residues as written; N and C are the ends. Square brackets hold non-standard residues; d marks the D form. Peptide text beside a SMILES is read from it. I, II: the chains in the order shown. X1 = C[C@@H](CNC(=O)[*:1])N[*:2]; Nle = CCCC[C@H](N)C(=O)O

T1 sequence (P47871 26-477): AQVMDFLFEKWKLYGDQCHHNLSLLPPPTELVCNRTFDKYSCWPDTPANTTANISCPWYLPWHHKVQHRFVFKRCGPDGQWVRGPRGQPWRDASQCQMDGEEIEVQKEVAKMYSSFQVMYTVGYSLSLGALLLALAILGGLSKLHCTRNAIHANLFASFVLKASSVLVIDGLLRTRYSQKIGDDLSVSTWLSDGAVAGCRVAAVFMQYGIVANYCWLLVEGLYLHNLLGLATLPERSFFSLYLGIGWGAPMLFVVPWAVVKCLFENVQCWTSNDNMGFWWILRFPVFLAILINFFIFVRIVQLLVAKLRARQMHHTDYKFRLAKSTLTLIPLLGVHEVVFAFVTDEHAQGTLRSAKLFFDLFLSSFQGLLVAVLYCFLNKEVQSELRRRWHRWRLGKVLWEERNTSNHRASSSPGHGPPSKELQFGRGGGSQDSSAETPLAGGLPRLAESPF

As a reminder, the EC50 is the midpoint of the concentration-response curve. Lower therefore signals an effect from little substance. By solubility is commonly meant how much of the substance goes into solution per volume. High values mean much dissolved substance, low ones little dissolved substance. `CC(C)C[C@H](NC(=O)[C@H](Cc1ccc(O)cc1)NC(=O)[C@H](CCCCN)NC(=O)[C@H](CO)NC(=O)[C@H](Cc1ccc(O)cc1)NC(=O)[C@H](CC(=O)O)NC(=O)[C@H](CO)NC(=O)[C@@H](NC(=O)[C@H](Cc1ccccc1)NC(=O)[C@@H](NC(=O)CNC(=O)[C@H](CCC(N)=O)NC(=O)[C@H](CO)NC(=O)[C@@H](N)Cc1c[nH]cn1)[C@@H](C)O)[C@@H](C)O)C(=O)N[C@@H](CC(=O)O)C(=O)N[C@@H](CO)C(=O)N[C@@H](CCCNC(=N)N)C(=O)N[C@@H](CCCNC(=N)N)C(=O)N[C@@H](C)C(=O)N[C@@H](CCC(N)=O)C(=O)N[C@@H](CC(=O)O)C(=O)N[C@@H](Cc1ccccc1)C(=O)N[C@H](C(=O)N[C@@H](CCC(N)=O)C(=O)N[C@@H](Cc1c[nH]c2ccccc12)C(=O)N[C@@H](CC(C)C)C(=O)N[C@@H](C)CNC(=O)N[C@@H](CC(N)=O)C(=O)N[C@H](C(=O)O)[C@@H](C)O)C(C)C` [Compound 34]: the EC50 on human glucagon receptor is 2.5 nM. Besides, in data set [1], the solubility came out at 860 µg/mL (≈ 249 µM) and the “ratio (solubility relative to reference compound 16)” value is recorded as 3.4.
On to `CCCC[C@H](NC(=O)[C@H](CC(C)C)NC(=O)[C@H](Cc1c[nH]c2ccccc12)NC(=O)[C@H](CCC(N)=O)NC(=O)[C@@H](NC(=O)[C@H](Cc1ccccc1)NC(=O)[C@H](CC(=O)O)NC(=O)[C@H](CCC(N)=O)NC(=O)[C@H](C)NC(=O)[C@H](CCCNC(=N)N)NC(=O)[C@H](CCCNC(=N)N)NC(=O)[C@H](CO)NC(=O)[C@H](CC(=O)O)NC(=O)[C@H](CC(C)C)NC(=O)[C@H](Cc1ccc(O)cc1)NC(=O)[C@H](CCCCN)NC(=O)[C@H](CO)NC(=O)[C@H](Cc1ccc(O)cc1)NC(=O)[C@H](CC(=O)O)NC(=O)[C@H](CO)NC(=O)[C@@H](NC(=O)[C@H](Cc1ccccc1)NC(=O)[C@@H](NC(=O)CNC(=O)[C@H](CCC(N)=O)NC(=O)[C@H](CO)NC(=O)[C@@H](N)Cc1c[nH]cn1)[C@@H](C)O)[C@@H](C)O)C(C)C)C(=O)N[C@@H](C)CNC(=O)N[C@H](C(=O)O)[C@@H](C)O` [Compound 35], for which, at human glucagon receptor, the concentration for a half-maximal effect (EC50) stood at 0.44 nM.
With `CCCC[C@H](NC(=O)[C@H](CC(C)C)NC(=O)[C@H](Cc1c[nH]c2ccccc12)NC(=O)[C@H](CCC(N)=O)NC(=O)[C@@H](NC(=O)[C@H](Cc1ccccc1)NC(=O)[C@H](CC(=O)O)NC(=O)[C@H](CCC(N)=O)NC(=O)[C@H](C)NC(=O)[C@H](CCCNC(=N)N)NC(=O)[C@H](CCCNC(=N)N)NC(=O)[C@H](CO)NC(=O)[C@H](CC(=O)O)NC(=O)[C@H](CC(C)C)NC(=O)[C@H](Cc1ccc(O)cc1)NC(=O)[C@H](CCCCN)NC(=O)[C@H](CO)NC(=O)[C@H](Cc1ccc(O)cc1)NC(=O)[C@H](CC(=O)O)NC(=O)[C@H](CO)NC(=O)[C@@H](NC(=O)[C@H](Cc1ccccc1)NC(=O)[C@@H](NC(=O)CNC(=O)[C@H](CCC(N)=O)NC(=O)[C@H](CO)NC(=O)[C@@H](N)Cc1c[nH]cn1)[C@@H](C)O)[C@@H](C)O)C(C)C)C(=O)N[C@@H](CC(N)=O)C(=O)N[C@@H](C)CNC(N)=O` [Compound 36], the “% bioactivity of reference, GCG-R” value at human glucagon receptor (Reference Compound 16) is recorded as 246%. This molecule showed a 50% effective concentration (EC50) on human glucagon receptor of 0.026 nM.
In the case of `CCCC[C@H](NC(=O)[C@H](CC(C)C)NC(=O)[C@H](Cc1c[nH]c2ccccc12)NC(=O)[C@H](CCC(N)=O)NC(=O)[C@@H](NC(=O)[C@H](Cc1ccccc1)NC(=O)[C@H](CC(=O)O)NC(=O)[C@H](CCC(N)=O)NC(=O)[C@H](C)NC(=O)[C@H](CCCNC(=N)N)NC(=O)[C@H](CCCNC(=N)N)NC(=O)[C@H](CO)NC(=O)[C@H](CC(=O)O)NC(=O)NC[C@H](C)NC(=O)[C@H](Cc1ccc(O)cc1)NC(=O)[C@H](CCCCN)NC(=O)[C@H](CO)NC(=O)[C@H](Cc1ccc(O)cc1)NC(=O)[C@H](CC(=O)O)NC(=O)[C@H](CO)NC(=O)[C@@H](NC(=O)[C@H](Cc1ccccc1)NC(=O)[C@@H](NC(=O)CNC(=O)[C@H](CCC(N)=O)NC(=O)[C@H](CO)NC(=O)[C@@H](N)Cc1c[nH]cn1)[C@@H](C)O)[C@@H](C)O)C(C)C)C(=O)N[C@@H](CC(N)=O)C(=O)N[C@H](C(=O)O)[C@@H](C)O` [Compound 51] (I: DSRRAQDFVQWL[Nle]NT-OH / II: H-HSQGTFTSDYSKY; linker I:N-II:C via X1; C-terminus assumed), the EC50 at human glucagon receptor was 68 nM. For the same molecule, in data set [1], the solubility worked out at 560 µg/mL (≈ 162 µM) and the “ratio (solubility relative to reference compound 16)” value stood at 2.2.
On the same counts, the results for `CCCC[C@H](NC(=O)[C@H](CC(C)C)NC(=O)[C@H](Cc1c[nH]c2ccccc12)NC(=O)[C@H](CCC(N)=O)NC(=O)[C@@H](NC(=O)[C@H](Cc1ccccc1)NC(=O)[C@H](CC(=O)O)NC(=O)[C@H](CCC(N)=O)NC(=O)[C@H](C)NC(=O)[C@H](CCCNC(=N)N)NC(=O)[C@H](CCCNC(=N)N)NC(=O)NC[C@H](C)NC(=O)[C@H](CC(=O)O)NC(=O)[C@H](CC(C)C)NC(=O)[C@H](Cc1ccc(O)cc1)NC(=O)[C@H](CCCCN)NC(=O)[C@H](CO)NC(=O)[C@H](Cc1ccc(O)cc1)NC(=O)[C@H](CC(=O)O)NC(=O)[C@H](CO)NC(=O)[C@@H](NC(=O)[C@H](Cc1ccccc1)NC(=O)[C@@H](NC(=O)CNC(=O)[C@H](CCC(N)=O)NC(=O)[C@H](CO)NC(=O)[C@@H](N)Cc1c[nH]cn1)[C@@H](C)O)[C@@H](C)O)C(C)C)C(=O)N[C@@H](CC(N)=O)C(=O)N[C@H](C(=O)O)[C@@H](C)O` [Compound 52] are 34 nM, 490 µg/mL (≈ 141 µM) and 1.9.
The corresponding values for `CCCC[C@H](NC(=O)[C@H](CC(C)C)NC(=O)[C@H](Cc1c[nH]c2ccccc12)NC(=O)[C@H](CCC(N)=O)NC(=O)[C@@H](NC(=O)[C@H](Cc1ccccc1)NC(=O)[C@H](CC(=O)O)NC(=O)[C@H](CCC(N)=O)NC(=O)[C@H](C)NC(=O)[C@H](CCCNC(=N)N)NC(=O)NC[C@H](C)NC(=O)[C@H](CO)NC(=O)[C@H](CC(=O)O)NC(=O)[C@H](CC(C)C)NC(=O)[C@H](Cc1ccc(O)cc1)NC(=O)[C@H](CCCCN)NC(=O)[C@H](CO)NC(=O)[C@H](Cc1ccc(O)cc1)NC(=O)[C@H](CC(=O)O)NC(=O)[C@H](CO)NC(=O)[C@@H](NC(=O)[C@H](Cc1ccccc1)NC(=O)[C@@H](NC(=O)CNC(=O)[C@H](CCC(N)=O)NC(=O)[C@H](CO)NC(=O)[C@@H](N)Cc1c[nH]cn1)[C@@H](C)O)[C@@H](C)O)C(C)C)C(=O)N[C@@H](CC(N)=O)C(=O)N[C@H](C(=O)O)[C@@H](C)O` [Compound 53] are 0.67 nM, 580 µg/mL (≈ 170 µM) and 2.3.
On the same counts, the results for `CCCC[C@H](NC(=O)[C@H](CC(C)C)NC(=O)[C@H](Cc1c[nH]c2ccccc12)NC(=O)[C@H](CCC(N)=O)NC(=O)[C@@H](NC(=O)[C@H](Cc1ccccc1)NC(=O)[C@H](CC(=O)O)NC(=O)[C@H](CCC(N)=O)NC(=O)NC[C@H](C)NC(=O)[C@H](CCCNC(=N)N)NC(=O)[C@H](CCCNC(=N)N)NC(=O)[C@H](CO)NC(=O)[C@H](CC(=O)O)NC(=O)[C@H](CC(C)C)NC(=O)[C@H](Cc1ccc(O)cc1)NC(=O)[C@H](CCCCN)NC(=O)[C@H](CO)NC(=O)[C@H](Cc1ccc(O)cc1)NC(=O)[C@H](CC(=O)O)NC(=O)[C@H](CO)NC(=O)[C@@H](NC(=O)[C@H](Cc1ccccc1)NC(=O)[C@@H](NC(=O)CNC(=O)[C@H](CCC(N)=O)NC(=O)[C@H](CO)NC(=O)[C@@H](N)Cc1c[nH]cn1)[C@@H](C)O)[C@@H](C)O)C(C)C)C(=O)N[C@@H](CC(N)=O)C(=O)N[C@H](C(=O)O)[C@@H](C)O` [Compound 54] are 32 nM, 630 µg/mL (≈ 180 µM) and 2.5.
